What follows are compounds tested on HIV-1 IIIB (assay: HOS HIV-1 infectivity assay). Conditions: Human immunodeficiency virus 1, IIIB; as determined by the infectivity assay; strain not stated in Table 2; read-out: Activity Level.
Assay type: cell-based
Protocol: Compounds were profiled against two HIV-1 viruses, the M-tropic (CCR5 utilizing) Ba-L strain and the T-tropic (CXCR4 utilizing) IIIB strain. Both viruses were propagated in human peripheral blood lymphocytes. Compounds were tested for there ability to block infection of the HOS cell line (expressing hCXCR4/hCCR5/hCD4/pHIV-LTR-luciferase) by either HIV-1 Ba-L or HIV-1 IIIB. Compound cytotoxicity was also examined in the absence of virus addition.
HOS cells (expressing hCXCR4/hCCR5/hCD4/pHIV-LTR-luciferase) were harvested and diluted in Dulbeccos modified Eagles media supplemented with 2% FCS and non-essential amino acid to a concentration of 60,000 cells/ml. The cells were plated into 96-well plates (100 ul per well) and the plates were placed in a tissue culture incubator (37° C.; 5% CO2/95% air) for a period of 24 h.
Subsequently, 50 ul of the desired drug solution (4 times the final concentration) was added to each well and the plates were returned to the tissue culture incubator (37° C.; 5% CO2/95% air) for 1 h. Following this incubation 50 ul of diluted virus was added to each well (approximately 2 million RLU per well of virus). The plates were returned to the tissue culture incubator (37° C.; 5% CO2/95% air) and were incubated for a further 96 h.
Following this incubation the endpoint for the virally infected cultures was quantified following addition of Steady-Glo Luciferase assay system reagent (Promega, Madison, Wis.). Cell viability or non-infected cultures was measured using a CellTiter-Glo luminescent cell viability assay system (Promega, Madison, Wis.). All luminescent readouts are performed on a Topcount luminescence detector (Packard, Meridien, Conn.).

Row | Compound | IC50 [nM]
1 | CN(Cc1nc2ccccc2n1CC(=O)NCc1ccccn1)C1CCCc2cccnc21 (stereo not drawn) [Example 33, 2-(2-{[Methyl(5,6,7,8-tetrahydro-8-quinolinyl)amino]methyl}-1H-benzimidazol-1-yl)-N-(2-pyridinylmethyl)acetamide] | 100 to 500
2 | CC(C)CCNCC(C)(C)Cn1c(CN(C)C2CCCc3cccnc32)nc2ccccc21 (stereo not drawn) [Example 69, N-[(1-{2,2-Dimethyl-3-[(3-methylbutyl)amino]propyl}-1H-benzimidazol-2-yl)methyl]-N-methyl-5,6,7,8-tetrahydro-8-quinolinamine] | 100 to 500
3 | CN(Cc1nc2ccccc2n1Cc1ccccn1)C1CCCc2cccnc21 (stereo not drawn) [Example 26, N-Methyl-N-{[1-(2-pyridinylmethyl)-1H-benzimidazol-2-yl]methyl}-5,6,7,8-tetrahydro-8-quinolinamine] | 500 to 10000
4 | CN(C)Cc1ccc(-n2c(CN(C)C3CCCc4cccnc43)nc3ccccc32)cc1 (stereo not drawn) [Example 73, N-[(1-{4-[(Dimethylamino)methyl]phenyl}-1H-benzimidazol-2-yl)methyl]-N-methyl-5,6,7,8-tetrahydro-8-quinolinamine] | 500 to 10000
5 | CC(C)CN(Cc1nc2ccccc2n1C[C@H]1CCCN(C(C)C)C1)[C@H]1CCCc2cccnc21 [Example 98, (8S)—N-[(1-{[(3S)-1-(1-Methylethyl)-3-piperidinyl]methyl}-1H-benzimidazol-2-yl)methyl]-N-(2-methylpropyl)-5,6,7,8-tetrahydro-8-quinolinamine] | 100 to 500
6 | CN(Cc1nc2ccccc2n1CCCNS(C)(=O)=O)C1CCCc2cccnc21 (stereo not drawn) [Example 63, N-[3-(2-{[Methyl(5,6,7,8-tetrahydro-8-quinolinyl)amino]methyl}-1H-benzimidazol-1-yl)propyl]methanesulfonamide] | 100 to 500
7 | CN(Cc1nc2ccccc2n1Cc1ccncc1)C1CCCc2cccnc21 (stereo not drawn) [Example 27, N-Methyl-N-{[1-(4-pyridinylmethyl)-1H-benzimidazol-2-yl]methyl}-5,6,7,8-tetrahydro-8-quinolinamine] | 100 to 500
8 | CC(C)CCN(CCCn1c(CN(C)C2CCCc3cccnc32)nc2ccccc21)CCC(C)C (stereo not drawn) [Example 65, N-[(1-[3-[Bis(3-methylbutyl)amino]propyl]-1H-benzimidazol-2-yl)methyl]-N-methyl-5,6,7,8-tetrahydro-8-quinolinamine] | 500 to 10000
9 | NCCCn1c(CN(CCc2ccccc2)C2CCCc3cccnc32)nc2ccccc21 (stereo not drawn) [Example 52, N-{[1-(3-Aminopropyl)-1H-benzimidazol-2-yl]methyl}-N-(2-phenylethyl)-5,6,7,8-tetrahydro-8-quinolinamine] | 500 to 10000
10 | CN(Cc1nc2ccccc2n1C[C@H]1CCCN(Cc2nccs2)C1)[C@H]1CCCc2cccnc21 [Example 103, (8S)—N-Methyl-N-[(1-{[(3S)-1-(1,3-thiazol-2-ylmethyl)-3-piperidinyl]methyl}-1H-benzimidazol-2-yl)methyl]-5,6,7,8-tetrahydro-8-quinolinamine] | 100 to 500
11 | CC(C)CCN(Cc1nc2ccccc2n1CCCCN)C1CCCc2cccnc21 (stereo not drawn) [Example 54, N-{[1-(4-Aminobutyl)-1H-benzimidazol-2-yl]methyl}-N-(3-methylbutyl)-5,6,7,8-tetrahydro-8-quinolinamine] | 100 to 500
12 | CN(C)CC#CCn1c(CN(C)C2CCCc3cccnc32)nc2ccccc21 (stereo not drawn) [Example 56, N-({1-[4-(Dimethylamino)-2-butyn-1-yl}-1H-benzimidazol-2-yl]methyl)-N-methyl-5,6,7,8-tetrahydro-8-quinolinamine] | 100 to 500
13 | CN(Cc1nc2ccccc2n1[C@H]1CC[C@H](N(C)C)CC1)C1CCCc2cccnc21 (stereo partly drawn) [Example 35, N-({1-[trans-4-(Dimethylamino)cyclohexyl]-1H-benzimidazol-2-yl}methyl)-N-methyl-5,6,7,8-tetrahydro-8-quinolinamine] | 100 to 500
14 | CC(C)CCN(Cc1nc2ccccc2n1CC(C)(C)CN(C)C)C1CCCc2cccnc21 (stereo not drawn) [Example 66, N-({1-[3-(Dimethylamino)-2,2-dimethylpropyl]-1H-benzimidazol-2-yl}methyl)-N-(3-methylbutyl)-5,6,7,8-tetrahydro-8-quinolinamine] | 500 to 10000

Other lines, results leading:

Row | IC50 [nM] | Compound
15 | 100 to 500 | CN(Cc1nc2ccccc2n1CCCN1CCOCC1)C1CCCc2cccnc21 (stereo not drawn) [Example 57, N-Methyl-N-([1-[3-(4-morpholinyl)propyl]-1H-benzimidazol-2-yl]methyl)-5,6,7,8-tetrahydro-8-quinolinamine]
16 | < 100 | CC(C)CCNCCCn1c(CN(C)C2CCCc3cccnc32)nc2ccccc21 (stereo not drawn) [Example 64, N-Methyl-N-[(1-{3-[(3-methylbutyl)amino]propyl}-1H-benzimidazol-2-yl)methyl]-5,6,7,8-tetrahydro-8-quinolinamine]
17 | < 100 | CN(C)CCN1CCC[C@H](Cn2c(CN(C)[C@H]3CCCc4cccnc43)nc3ccccc32)C1 [Example 105, (8S)—N-{[1-({(3S)-1-[2-(Dimethylamino)ethyl]-3-piperidinyl}methyl)-1H-benzimidazol-2-yl]methyl}-N-methyl-5,6,7,8-tetrahydro-8-quinolinamine]
18 | 100 to 500 | CN(C)Cc1cccc(Cn2c(CN(C)C3CCCc4cccnc43)nc3ccccc32)c1 (stereo not drawn) [Example 48, N-{[1-({3-[(Dimethylamino)methyl]phenyl}methyl)-1H-benzimidazol-2-yl]methyl}-N-methyl-5,6,7,8-tetrahydro-8-quinolinamine]
19 | < 100 | CC(C)N1CCC[C@H]1CN1CCC[C@H](Cn2c(CN(C)[C@H]3CCCc4cccnc43)nc3ccccc32)C1 [Example 107, (8S)—N-Methyl-N-({1-[((3S)-1-{[(2S)-1-(1-methylethyl)-2-Pyrrolidinyl]methyl}-3-piperidinyl)methyl]-1H-benzimidazol-2-yl}methyl)-5,6,7,8-tetrahydro-8-quinolinamine]
20 | < 100 | CN(Cc1nc2ccccc2n1CCCNC(=N)N)C1CCCc2cccnc21 (stereo not drawn) [Example 61, N-[3-(2-{[Methyl(5,6,7,8-tetrahydro-8-quinolinyl)amino]methyl}-1H-benzimidazol-1-yl)propyl]guanidine]
21 | < 100 | CC(C)CCN1CCC[C@H](Cn2c(CN(C)[C@@H]3CCCc4cccnc43)nc3ccccc32)C1 [Example 82, (8R)—N-Methyl-N-[(1-{[(3S)-1-(3-methylbutyl)-3-piperidinyl]methyl}-1H-benzimidazol-2-yl)methyl]-5,6,7,8-tetrahydro-8-quinolinamine]
22 | < 100 | CN(Cc1nc2ccccc2n1CC1CCNC1)C1CCCc2cccnc21 (stereo not drawn) [Example 8c, N-Methyl-N-{[1-(3-pyrrolidinylmethyl)-1H-benzimidazol-2-yl]methyl}-5,6,7,8-tetrahydro-8-quinolinamine]
23 | < 100 | CN(Cc1nc2ccccc2n1CC1CNC1)C1CCCc2cccnc21 (stereo not drawn) [Example 10d, N-{[1-(3-Azetidinylmethyl)-1H-benzimidazol-2-yl]methyl}-N-methyl-5,6,7,8-tetrahydro-8-quinolinamine]
24 | < 100 | CN(Cc1nc2ccccc2n1CCC1CCCCN1)C1CCCc2cccnc21 (stereo not drawn) [Example 23d, N-Methyl-N-({1-[2-(2-piperidinyl)ethyl]-1H-benzimidazol-2-yl}methyl)-5,6,7,8-tetrahydro-8-quinolinamine]
25 | < 100 | CC(C)N1CCC[C@@H](Cn2c(CN(C)[C@H]3CCCc4cccnc43)nc3ccccc32)C1 [Example 81, (8S)—N-Methyl-N-[(1-{[(3R)-1-(1-methylethyl)-3-piperidinyl]methyl}-1H-benzimidazol-2-yl)methyl]-5,6,7,8-tetrahydro-8-quinolinamine]
26 | < 100 | CC(C)CN1CCC[C@H](Cn2c(CN(C)[C@H]3CCCc4cccnc43)nc3ccccc32)C1 [Example 44, (8S)—N-Methyl-N-[(1-{[(3S)-1-(2-methylpropyl)-3-piperidinyl]methyl}-1H-benzimidazol-2-yl)methyl]-5,6,7,8-tetrahydro-8-quinolinamine]
27 | < 100 | CN1CCC[C@H](Cn2c(CN(C)[C@H]3CCCc4cccnc43)nc3ccccc32)C1 [Example 39i, (8S)—N-Methyl-N-[(1-{[(3S)-1-methyl-3-piperidinyl]methyl}-1H-benzimidazol-2-yl)methyl]-5,6,7,8-tetrahydro-8-quinolinamine]
28 | < 100 | CN1CCC[C@H](Cn2c(CN(CCO)[C@H]3CCCc4cccnc43)nc3ccccc32)C1 [Example 95, 2-{[(1-{[(3S)-1-Methyl-3-piperidinyl]methyl}-1H-benzimidazol-2-yl)methyl][(8S)-5,6,7,8-tetrahydro-8-quinolinyl]amino}ethanol]
29 | < 100 | CN1CCC[C@@H]1CN1CCC[C@H](Cn2c(CN(C)[C@H]3CCCc4cccnc43)nc3ccccc32)C1 [Example 108, (8S)—N-Methyl-N-([1-[((3S)-1-{[(2R)-1-methyl-2-pyrrolidinyl]methyl}-3-piperidinyl)methyl]-1H-benzimidazol-2-yl]methyl)-5,6,7,8-tetrahydro-8-quinolinamine]
30 | < 100 | CN(Cc1nc2ccccc2n1C[C@H]1CCCN(C(=N)N)C1)[C@H]1CCCc2cccnc21 [Example 89, (3R)-3-{[2-({Methyl[(8S)-5,6,7,8-tetrahydro-8-quinolinyl]amino}methyl)-1H-benzimidazol-1-yl]methyl}-1-piperidinecarboximidamide]

— US20080096861A1, “Chemical Compounds” (SMITHKLINE BEECHAM CORPORATION, priority 2004, published 2008)
